Results: BindingDB's records for doi:10.1016/j.ejmech.2021.113381 (University of Texas Medical Branch, 2021)
Where a name gives a salt, the structure may show the parent alone.

Test: Inhibition of ASM (unknown origin)-mediated KRAS mislocalization from plasma membrane

SMILES: CC(NCCC(c1ccccc1)c1ccccc1)c1ccccc1 (stereo unspecified) [FENDILINE HYDROCHLORIDE]
- IC50: 5.6 µM
